Laboratory results: article PMC10762068, “Selective blockade of Cav1.2 (α1C) versus Cav1.3 (α1D) L-type calcium channels by the black mamba toxin calciseptine” (Nature Communications, 2024)
Positions of bridges follow the written chain, without caps; N, C: chain ends. No end group written: not given here.

What was measured:
[1] = system: N-type Ca^2+ channel; conditions: cited from earlier work
Description: (§1) Animal venoms constitute an immense reservoir for identification of new toxins and toxin-derived tools for modulating the physiological function of ion channels. In particular, toxins showing three-fingers molecular scaffold class include several cardiotoxic peptides that abound in snake venoms. Three fingers toxin peptides potently block a variety of proteins including nicotinic receptors, acetylcholinesterase, acid-sensitive ion channels (ASIC)[14], as well as cytotoxins that disrupt the lipid membrane. More than 30 years ago, M. Lazdunski ‘s group purified a 60-amino acid three- ...

[2] = system: portal vein, thoracic aorta and uterine smooth muscle; conditions: cited from earlier work
Description: as §1

[3] = system: cardiac contractions; conditions: cited from earlier work
Description: as §1

[4] = system: SAN myocytes from Wild-Type mice; experiment: Spontaneous action potentials, perforated patch-clamp, SAN pacemaker myocytes; type: cell-based, mouse; conditions: for action potential duration APD30: 30% repolarization; for action potential duration APD30 / action potential duration APD50 / action potential duration APD70 / action potential duration APD90 / slope of linear part of diastolic depolarization (SLDD) / slope of exponential part of diastolic depolarization (SEDD) / action potential amplitude (APA) / action potential rate: mean ± SEM; for action potential duration APD50: 50% repolarization; for action potential duration APD70: 70% repolarization; for action potential duration APD90: 90% repolarization
Description: Hearts from Wild-Type and Cav1.3^−/− mice were removed under general anesthesia consisting of 0.01 mg/g xylazine (2% Rompun; Bayer AG) and 0.1 mg/g ketamine (Imalgène;Merial) and immersed in a pre-warmed (36 °C) Tyrode solution containing (mM): 140 NaCl, 5.4 KCl, 1 MgCl2, 1.8 CaCl2, 5.5 D-glucose, and 5 Hepes (adjusted to pH 7.4 with NaOH). […] SAN tissue was excised and transferred into a low-Ca^2+ solution containing (mM): 140 NaCl, 5.4 KCl, 0.5 MgCl2, 0.2 CaCl2, 1.2 KH2PO4, 50 taurine, 5.5 D-glucose, 1 mg/mL BSA, and 5 Hepes–NaOH (adjusted to pH 6.9 with NaOH) for 5 min. Then, enzymatic digestion was carried out for 20-25 min at 36 °C in the low-Ca^2+ solution containing LiberaseTH Research Grade (0.15 mg/mL; Roche, Mannheim, Germany) and elastase (0.5 mg/mL; Worthington, Lakewood, NJ, USA). Digestion was stopped by washing the SAN in a “Kraftbrühe” (KB) medium containing (mM) 100 K-glutamate, 10 K-aspartate, 25 KCl, 10 KH2PO4, 2 MgSO4, 20 taurine, 5 creatine, 0.5 EGTA, 20 D-glucose, 5 Hepes, and 1 mg/mL BSA (adjusted to pH 7.2 with KOH). Single SAN cells were then dissociated from the SAN tissue by manual agitation using a flame-forged Pasteur’s pipette. To recover the automaticity of the SAN cells, Ca^2+ was gradually reintroduced in the cell’s storage solution to a final concentration of 1.8 mM. SAN cells were then left to rest for 1 h before recordings.
For patch-clamp recordings of SAN myocytes, cells were harvested in custom-made chambers with glass bottoms for cell attachment. Cells were then super-fused with Tyrode’s solution warmed at 36 °C before recording. Action potentials and ionic currents were recorded using an Axon multi-clamp patch-clamp 700B amplifier. Voltage-gated L-type Ca^2+ currents (ICaL) were recorded using standard whole cell patch-clamp configuration. For recording ICaL, we used an extracellular recording solution contained (mM): 135 tetraethylammonium chloride (TEA-Cl), 10 4-aminopyridine (4-AP), 1 MgCl2, 0.03 tetrodotoxin (TTX), 1 g/L Glucose, 2 CaCl2, 10 Hepes, (adjusted to pH = 7.2 with TEAOH). […] Pacemaker activity was recorded by the perforated patch-clamp technique using escin (40 µg/ml). For recording cell automaticity glass pipettes were filled with the intracellular solution contained (mM): 80 K-Aspartate, 50 KCl, 1 MgCl2, 5 HEPES, 2 CaCl2, 5 EGTA, 3 ATP-Na+ salt; pH was adjusted to 7.2 with KOH. Escin was dissolved in sterile H2O and added to the intracellular solution right before each experiment.
We used an extracellular recording solution (Tyrode’s based) contained (mM): 140 NaCl, 5.4 KCl, 1 MgCl2, 1.8 CaCl2, 5 HEPES, 5.5 D-Glucose; pH was set to 7.4 with NaOH. AP parameters have been calculated as reported in Baudot et al.[10]. Data were analyzed using pCLAMP9 (Molecular Devices) and GraphPad Prism (GraphPad) software.
In all experiments of cellular electrophysiology, we employed synthetized analog of Cas, commercially available at Latoxan (ID: L8109). The native peptide was purified from the venom of Dendroaspis polylepis purchased from Latoxan, as previoulsly described. The pure peptide was obtained after gel filtration, cation exchange and C18 reversed phase chromatography. Its measured molecular mass (7036.26 Da average) was in accordance with the mass calculated from sequence data (7036.22 Da).

[5] = Cas 300 nM alone (n=9/N=4) or + Nife 3 µM (n=8/N=4)
[6] = Cas 1 µM alone (n=12/N=3) or + Nife 3 µM (n=9/N=3)

RICYIHKASLPRATKTCVENTCYKMFIRTQREYISERGCGCPTAMWPYQTECCKGDRCNK (disulfide 3-22, 17-39, 41-52, 53-58 (inferred)) [Cas, calciseptine]
effect on N-type Ca2+ channel [1]: without affecting
effect on smooth muscle contraction [2]: abolish all contraction
effect on cardiac contractions [3]: completely eliminate cardiac contractions
effect on AP duration ([4]; Cas 300 nM): did not affect AP duration
action potential duration APD30 [4, 5]: 28 ± 2 ms
action potential duration APD50 [4, 5]: 46 ± 4 ms
action potential duration APD70 [4, 5]: 66 ± 6 ms
action potential duration APD90 [4, 5]: 98 ± 8 ms
slope of linear part of diastolic depolarization (SLDD) ([4]; Cas 300 nM alone (n=9/N=4) or + Nife 3 µM (n=8/N=4), Ctrl 0.06 ± 0.01): ^$0.05 ± 0.01^p=0.0128 mV/ms
slope of exponential part of diastolic depolarization (SEDD) ([4]; Cas 300 nM alone (n=9/N=4) or + Nife 3 µM (n=8/N=4), Ctrl 0.51 ± 0.09): ^$0.40 ± 0.04^p=0.0078 mV/ms
action potential amplitude (APA) ([4]; Cas 300 nM alone (n=9/N=4) or + Nife 3 µM (n=8/N=4), Ctrl 83 ± 2): 75 ± 3 mV
action potential rate ([4]; Cas 300 nM alone (n=9/N=4) or + Nife 3 µM (n=8/N=4), Ctrl 200 ± 21): ^$194 ± 19^p=0.0004 bpm
effect on AP amplitude ([4]; Cas 300 nM and 1 µM): reduced AP amplitude
effect on AP firing rate ([4]; Cas 300 nM and 1 µM): did not affect AP firing rate
effect on maximum diastolic potential, threshold potential and upstroke velocity ([4]; Cas 300 nM or 1 µM): did not observe statistically significant differences
effect on slopes of linear and exponential diastolic depolarization ([4]; Cas 300 nM or 1 µM): did not change
effect on AP duration at 30% and 50% of repolarization ([4]; Cas 1 µM): had statistically significant effect
action potential duration APD30 [4, 6]: 25 ± 2 ms
action potential duration APD50 [4, 6]: 43 ± 3 ms
action potential duration APD70 [4, 6]: 61 ± 3 ms
action potential duration APD90 [4, 6]: 87 ± 4 ms
slope of linear part of diastolic depolarization (SLDD) ([4]; Cas 1 µM alone (n=12/N=3) or + Nife 3 µM (n=10/N=3), Ctrl 0.07 ± 0.01): ^$0.06 ± 0.01^p=0.0187 mV/ms
slope of exponential part of diastolic depolarization (SEDD) ([4]; Cas 1 µM alone (n=12/N=3) or + Nife 3 µM (n=10/N=3), Ctrl 0.48 ± 0.06): ^$0.50 ± 0.06^p=0.0002 mV/ms
action potential amplitude (APA) ([4]; Cas 1 µM alone (n=12/N=3) or + Nife 3 µM (n=10/N=3), Ctrl 91 ± 2): 85 ± 3 mV
action potential rate ([4]; Cas 1 µM alone (n=12/N=3) or + Nife 3 µM (n=10/N=3), Ctrl 218 ± 15): ^$213 ± 15^p<0.0001 bpm
